The text below walks through data of patent US9567586B2, “EpCAM aptamer for detection of cancer stem cells” (DEAKIN UNIVERSITY, priority 2012, dated 2017).

Read-outs that look alike come from different tables or passages of the source.

The target of data set [1] is T1, native EpCAM expressed on the cell surface (Homo sapiens, UniProt P16422).
T1 construct: host or cells: T47D, MCF7, MDA-MB-231, HT-29 (EpCAM-positive); U118MG (EpCAM-negative control)
T1 sequence (P16422 24-314): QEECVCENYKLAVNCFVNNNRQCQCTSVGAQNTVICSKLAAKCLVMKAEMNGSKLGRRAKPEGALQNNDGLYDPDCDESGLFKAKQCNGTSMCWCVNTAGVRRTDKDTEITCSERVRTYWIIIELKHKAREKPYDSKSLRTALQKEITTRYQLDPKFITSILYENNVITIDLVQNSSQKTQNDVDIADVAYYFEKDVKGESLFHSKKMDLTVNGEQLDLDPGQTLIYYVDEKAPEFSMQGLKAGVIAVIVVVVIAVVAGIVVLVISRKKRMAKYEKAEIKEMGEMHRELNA
The data set can be described thus: Binding affinities of EpCAM aptamers by flow cytometry. To be noted: read-out: KD (±SEM). The method, then:
(§1) Cells were harvested at 80% confluence with trypsin digestion and resuspended in washing buffer (DPBS with 5 mM MgCl2) and enumerated. Following centrifugation (1000×g for 5 min), the cell pellet was resuspended in assay buffer (DPBS supplemented with 5 mM MgCl2, 0.1 mg/ml tRNA, 0.1 mg/ml salmon sperm DNA, 0.2% [w/v] sodium azide, and 5% FCS) and diluted to 1×10^6/mL. The blocking step was carried out at 4′C. The binding of the aptamers was carried out at 37′C for 30 min or 4′C for 1 h, with the final concentration of magnesium chloride being 2.5 mM in all binding assays.
(§2) The equilibrium dissociation constant (K′d) of successful 2′-fluoropyrimidine RNA aptamer species to native EpCAM expressed on the cell surface was determined using flow cytometry with EpCAM-positive and -negative cell lines and a negative control (2-O-methyl-pyrimidine) aptamer (5′-DY647-mGCmGACUmGmGUUmACCCmGmGUCmGdT-3′) (SEQ ID NO:13). Kato III or U118MG cells (5×10^5) were first incubated with assay buffer followed by two washes with binding buffer prior to incubation with serial concentrations (approximately 10-fold above and below the apparent K′d) of FITC-labelled aptamer in a 100 μL assay buffer for 1 h on ice. The cells were washed three times, resuspended in 150 μL assay buffer containing 2.5 mM MgCl2 and subjected to flow cytometric analyses. The FITC-labelled unselected library was used as another negative control. The mean fluorescence intensity (MFI) of the unselected library was subtracted from that of the aptamer-target cell to generate the MFI of specific binding. The K′d for each aptamer was determined by Scatchard analysis according to the equation: [Bound aptamer]/[aptamer]=−(1/KD)×[bound aptamer]+([T]tol/KD) where [T]tot represents the total target concentration. Design and Generation of EpCAM Aptamer-siRNA Chimera
(§3) The binding affinities of both aptamers have been characterised against all five cell lines used in this study by flow cytometry, and the results are shown in Table 1.
For orientation: Flow cytometry measures light scatter and fluorescence of single cells or particles in a stream.

Data set [2] has as its system native EpCAM expressed on the cell surface. Described as above. The arrangement: species or system human. To be noted: U118MG cells (EpCAM negative); read-out: KD (±SEM). The method, then: as §1, §2, §3
In data set [3] the test system is EpCAM. Kind of data set: Immunofluorescence staining of paraffin embedded xenograft tumour sections. The arrangement: species or system human; key to Quantification of anti-EpCAM staining by immunofluorescence: ‘−’ no staining; ‘+’ faint incomplete staining in >10% of cells; ‘++’ moderate complete membrance staining; ‘+++’ strong complete membrance staining. The method, then:
(§4) A: Immunofluorescence staining of breast cancer (T47D, MCF7 and MDA-MB-231), colon cancer (HT-29) and glioblastoma (U118MG) xenograft tumours by EpCAM aptamers, DT3 and 23, control aptamer and the anti-EpCAM antibody, 323/A3 (Blue: nuclei; Red: EpCAM positive staining). B: Immunohistochemistry was performed with the anti-EpCAM antibody BerEP4, and all tumours were evaluated by haematoxylin and eosin staining for morphological confirmation. Aptamer staining was performed for 15 min at 37° C., while 323/A3 staining was performed at 4° C. overnight and BerEP4 was performed at room temperature for 20 min. All fluorescent images were taken at 60×, while light microscopy images were taken at 20×. Images are representative of at least three separate experiments. Scale bar: 50 μm.
(§5) The cell lines of human origin used in this study were purchased from American type Culture Collection. They were glioblastoma U118-MG; breast carcinoma MCF-7, MDA-MB-231 and T47D; and colorectal adenocarcinoma HT-29. Cells were grown and maintained in culture with Dulbecco's Modified Eagle medium (DMEM) (Invitrogen, Victoria, Australia) supplemented with 10% fetal calf serum (MCF-7, T47D, HT-29, and U118-MG), or Roswell Park Memorial Institute 1640 (RPMI 1640) (Invitrogen) with 10% fetal calf serum (MDA-MB-231). Cells were maintained at 37 ^CC in a humidified atmosphere containing 5% CO2. For xenograft studies, single cell suspensions were harvested by trypsinisation, washed with PBS and resuspended in 0.1 mL of PBS for implantation in BALB/c-Foxn1 ^nu female mice. Once tumours had reached approximately […], they were excised and fixed in 10% neutral buffered formalin prior to processing and embedding. All animal procedures were approved by Deakin University Animal Welfare Committee, and in accordance with the Australian Code of Practice for the Care and Use of Animals for Scientific Purposes.
(§6) Sections from each of the xenograft tumours were cut at 4 μm onto polylysine coated slides prior to deparaffinisation with Histoclear and rehydration through graded ethanol. Heat induced antigen retrieval was performed in a microwave oven using Tris-EDTA buffer (10 mM Tris, 1 mM EDTA, 0.05% Tween 20, pH 9.0) for 20 min and the slides were allowed to cool prior to blocking with 0.1 mg/mL tRNA, 0.1 mg/mL salmon sperm DNA and 1 mg/mL bovine serum albumin (BSA) in phosphate buffered saline (PBS) for 20 min. Following the blocking step, slides were washed in PBS containing 0.1% Tween 20 twice for 2 min prior to incubation with either aptamer or antibody. Aptamers were prepared as previously described (Shigdar S et al, supra). Briefly, aptamers were heated to 85° C. for 5 min, allowed to cool to room temperature for 10 min and then heated at 37° C. for 15 min. Slides were incubated with aptamers at 100 nM concentration in a solution of PBS containing 5 mM MgCl2, 0.1 mg/mL tRNA, 1 mg/mL BSA, 10% dextran sulphate and 500 μg/mL heparin for 15 min at 37° C. The slides were then washed three times for 5 min each prior to incubation with Bisbenzimide Hoechst 33342 (3 μg/mL) for 10 min. Slides were then mounted using VECTASHIELD and coverslipped prior to visualisation using a Fluoview FV10i laser scanning confocal microscope. All images used for direct comparison were taken with identical exposure parameters and are presented without any digital contrast alteration or background subtraction. Antibody staining was performed using the anti-EpCAM antibody 323/A3 (ab8601, Abcam). […]

The target in data set [4] is T2, EpCAM (Homo sapiens, UniProt P16422).
T2 sequence (P16422 24-314): T1 sequence (P16422 24-314)
The data set is described as above. The arrangement: from tissue; host or cells: xenograft tumours of T47D, MCF7, MDA-MB-231, HT-29 and U118MG cells grown in BALB/c-Foxn1 nu mice, formalin-fixed and paraffin-embedded; key to Quantification of anti-EpCAM staining by immunofluorescence: ‘−’ no staining; ‘+’ faint incomplete staining in >10% of cells; ‘++’ moderate complete membrance staining; ‘+++’ strong complete membrance staining. The method, then:
as §4, §5
as §6, with “Abcam). Slides were washed and blocked following the same protocol as previously described prior to antibody staining. The antibody was prepared at a concentration of 10 μg/mL and the slides were incubated overnight at 4° C. Slides were then washed three times for 5 min followed by incubation with a goat-anti-mouse IgG AlexaFluor 647 conjugate (Invitrogen) at a concentration of 10 μg/mL for 2 h prior to washing, staining with Bisbenzimide Hoechst 33342, and coverslipping.” for “Abcam).”

The next data set deals with HT29 colon cancer cells. The data set can be described thus: Tumoursphere formation in 96-well, HT29. To be noted: HT29, 3 μM Dox equivalent, 5 days. The format is cell-based, human. As for the experimental part: Under non-adherent and serum-free conditions, only the cancer stem cells (CSCs) and progenitor cells survive and undergo self-renewal as well as proliferate to form tumour spheres. The inventor studied the ability of aptamer-Dox to target cancer stem cells by plating various cell doses of single-cell suspension of HT29 colon cancer cells in ultra-low attachment 96-wells in the presence of 3 μM of free Dox, 3 μM equivalent Dox conjugated with aptamer, 3 μM Dox-negative control aptamer or vehicle control for 5 days. Tumour spheres (with a size >50 μm) were enumerated.

In data set [5] the test system is PLC/PRF/5 hepatocellular carcinoma cell line. Kind of data set: Tumoursphere formation in 96-well, PLC/PRF/5. The format is cell-based, human.
For data set [6], the target named is T2, EpCAM. To be noted: patients with metastatic breast cancer; cited from earlier work.

Take “5′-GCGACUGGUUACCCGGUCG-3′ (RNA aptamer, modifications not given here, further chemistry not given here) [DT3]”: the dissociation constant Kd in data set [1] (HT29 cells) is 158 ± 70 nM; in data set [1] (MCF7 cells), 50 ± 18.5 nM; in data set [1] (MDA-MB-231 cells), 98.9 ± 37.8 nM; in data set [1] (T47D cells), 74.2 ± 26.2 nM; in data set [2], greater than 1000 nM. For the same compound, the “Quantification of anti-EpCAM staining by immunofluorescence” value is listed as “−” in the data set with EpCAM [3] (U118MG xenograft); “−” with EpCAM [4] (HT-29 xenograft); “+ (‘+’ faint incomplete staining in >10% of cells)” with EpCAM [4] (MCF7 xenograft); “+ (‘+’ faint incomplete staining in >10% of cells)” with EpCAM [4] (MDA-MB-231 xenograft); “++” with EpCAM [4] (T47D xenograft). Besides, the “staining of U118MG xenograft (in words)” value with EpCAM [3] (U118MG xenograft that does not express EpCAM) is “no staining detectable”. Further, the “staining of HT-29 xenograft sections (in words)” value in the data set with EpCAM [4] (HT-29 colorectal cancer xenograft) is reported as “did not show any staining”. Also, the “detection of EpCAM in MDA-MB-231 xenograft tumour (in words)” value in the data set with EpCAM [4] (MDA-MB-231 xenograft, low EpCAM expression) is recorded as “successfully detect EpCAM”. The “staining of human breast cancer xenografts (in words)” value with EpCAM [4] (T47D, MCF7 and MDA-MB-231 xenografts, 100 nM, 15 min, 37° C., dextran sulphate and heparin) is reported as “highly sensitive staining”.

In the case of `CC[C@@H](C(=O)[C@@H](C)[C@@H](O)[C@H](C)[C@@H]1O[C@@H]([C@@H](CC)C(=O)O)CC[C@@H]1C)[C@H]1O[C@]2(C=C[C@@H](O)[C@]3(CC[C@@](C)([C@H]4CC[C@](O)(CC)[C@H](C)O4)O3)O2)[C@H](C)C[C@@H]1C` [Saline, Salinomycin], the “Number of wells with sphere” value is given as 0/10 in the data set with HT29 colon cancer cells (1 cell seeded/well); 0/10 in the data set on HT29 colon cancer cells (10 cells seeded/well); 0/10 in the data set on HT29 colon cancer cells (100 cells seeded/well); 2/10 with HT29 colon cancer cells (200 cells seeded/well); 0/10 in data set [5] (1 cell seeded/well); 0/10 in data set [5] (10 cells seeded/well). In addition, the “Number of wells with sphere” value in data set [5] (100 cells seeded/well) and in data set [5] (200 cells seeded/well) was 0/10 throughout.

For “adecatumumab: fully humanised monoclonal anti-EpCAM antibody”, the clinical response result with EpCAM [6] is “dose-dependent and target dependent clinical responses”.

The Kd is the equilibrium constant for the complex coming apart.
